# Read-outs that look alike come from different tables or passages of the source.
# How the values were obtained:
# rat adipocytes = test: Evaluation of sugar transport activity (2-[14C(U)]-deoxy-D-glucose incorporation); assay type: cell-based; conditions: for EC50 (concentration of test compound corresponding to 50% enhancement action of sugar transport): enhancement action of insulin (100 nM) taken as 100%, 30 min preculture at 37° C.
# Procedure: Three male Wistar rats (6 to 7 weeks old) were bled by decapitation, and then laparotomized to extract 3 g of paratesticular fat tissue. […] An amount of 8 mg of collagenase (Type I) was added to carry out digestion treatment for 35 minutes, and undigested fragments were eliminated with a nylon mesh to obtain approximately 3 ml of isolated adipocytes. Collagenase was eliminated by buffer exchange, then, 2% BSA/KRH solution was added for re-suspension to obtain 15 ml of adipocyte suspension. The evaluation of sugar transport activity of the compound of the present invention was carried out with the methods described in the literature (Annual Review of Biochemistry, Volume 55, Page 1059, 1986) as a reference. That is to say, the above adipocyte suspension was distributed into polystyrene test tube, 200 μl each, 100 μl of solution of test substance (10 mg/ml of dimethylsulfoxide solution diluted with KRH) was added, and cultured while shaking at 37° C. for 30 minutes.
# C57BL/KsJ-db/dbJcl mice = test: Evaluation of hypoglycemic action in pathologic mouse; assay type: in vivo; conditions: 120 minutes after administration, fasted 20 hours
# Procedure: (§1) C57BL/KsJ-db/dbJcl mice (8 to 9 weeks old) or GK/Jcl rats fasted for 20 hours were administered with the test compound by a single oral administration, blood was collected from the tail vein immediately before administration and 30, 60, 120 and 180 minutes after administration, and the blood glucose level was measured with Fuji DryChem5500 (glucose oxidase method). For the test animals, a group comprised 4 to 5 subjects, and the blood glucose level was determined as mean values. The test compound was administered by dissolving in an aqueous solution of 50% polyethyleneglycol 400, or 100% polyethyleneglycol 400.
# (§2) The degrees of hypoglycemia calculated based on the blood glucose levels measured according to the methods described above are shown in Table 5 (mouse) and Table 6 (rat). The degree of hypoglycemia was calculated as the percentage of the difference between the blood glucose level at one time point 120 minutes after administration and blood glucose level immediately before administration, with respect to the blood glucose level immediately before administration.
# MDCK cells [1] = test: Evaluation of membrane permeability using MDCK cells; conditions: MDCK monolayer; mucous membrane side (pH 6.5) to basal membrane side (pH 7.4); 37° C.
# Procedure: (§3) The compound of the present invention was evaluated for membrane permeability using MDCK cells, according to the method below.
# (§4) An epithelial cell line derived from dog renal tubule, MDCK (Madin Darby Canine Kidney cell line), is cultured for 3 to 4 days in a flask containing 10% FBS-added D-MEM/F12 culture medium (Manufactured by Gibco) at 37° C. in a carbon dioxide incubator. The cells are detached from the flask with a Trypsin/EDTA solution (Manufactured by Gibco), and unicellularized by pipetting. The cells are suspended in the same medium as described above and placed in a transwell (mucous membrane-side well) of a Transwell plate (manufactured by COSTAR) at 2×10^5 cell/well in a volume of 0.1 ml. The transwell is transferred to the basal membrane-side well where 0.6 ml of the same culture medium has been placed, and the cells are cultured at 37° C. in a carbon dioxide incubator for 3 days. After the culture, the culture media in the mucous membrane-side well and the basal membrane-side well are exchanged for the same culture medium, incubated under the same condition for one day. Thus, satisfactory MDCK monolayer culture cells are obtained.
# (§5) During in vitro permeation-absorption experiments, the culture media are eliminated from both wells, the mucous membrane-side well is washed with PBS buffer solution (pH 6.5), and the basal membrane-side well is washed with PBS buffer solution (pH 7.4). Next, 0.1 ml of PBS buffer solution (pH6.5) is added to the mucous membrane-side well, 0.6 ml of PBS buffer solution (pH 7.4) is added to the basal membrane-side well, and equilibration is carried out by incubating for 15 minutes in a 37° C. incubator.
# (§6) The mucous membrane-side well is exchanged for 0.1 ml of a solution containing the test substance prepared with PBS buffer solution (pH6.5), and time point when the well is transferred to the basal membrane-side well substituted with 0.6 ml of PBS buffer solution (pH7.4) is taken as the permeation-absorption start time, and thereafter, sampling is performed from the basal membrane-side well over time. The amounts of test substance in the samples sampled in this way are measured by HPLC analysis, and the amount of the substance permeated and absorbed from the mucous membrane side to the basal membrane side according to the reaction time is determined to determine the permeation coefficient (cm/sec).
# GK/Jcl rats = test: Evaluation of hypoglycemic action in pathologic rat; assay type: in vivo; conditions: 120 minutes after administration, fasted 20 hours
# Procedure: as §1, §2
# MDCK cells [2] = conditions: dog
# Procedure: as §3, §4, §5, §6
# [3] = 3 mg/kg single oral administration
# [4] = 10 mg/kg single oral administration
Compound,EC50 (concentration of test compound corresponding to 50% enhancement action of sugar transport) (rat adipocytes),Degree of hypoglycemia (C57BL/KsJ-db/dbJcl mice; [3]),Degree of hypoglycemia (C57BL/KsJ-db/dbJcl mice; [4]),Permeation coefficient (MDCK cells [1]),other results
O=C1NCC2=C1[C@@H](c1cccc3ccoc13)N(C(=O)CO)[C@@H]1CCCC[C@H]1N2 [Example 1],0.65 µg/mL,4%,51%,8 10^−7 cm/sec,
COCC(=O)N1[C@@H]2CCCC[C@H]2NC2=C(C(=O)NC2)[C@H]1c1cccc2cc[nH]c12 [Example 5],0.26 µg/mL,28%,41%,20 10^−7 cm/sec,
O=C1NCC2=C1[C@@H](c1cccc3ccoc13)N(C(=O)C(F)F)[C@@H]1CCCC[C@H]1N2 [Example 6],0.58 µg/mL,,,8 10^−7 cm/sec,
O=C1NCC2=C1[C@@H](c1cccc3ccoc13)N(C(=O)C(F)(F)F)[C@@H]1CCCC[C@H]1N2 [Example 7],1.94 µg/mL,,,,
O=C1NCC2=C1[C@@H](c1cccc3ccsc13)N(C(=O)CO)[C@@H]1CCCC[C@H]1N2 [Example 8],0.61 µg/mL,26%,23%,,
Cc1cc2cccc([C@@H]3C4=C(CNC4=O)N[C@@H]4CCCC[C@H]4N3C(=O)CO)c2o1 [Example 9],0.92 µg/mL,,,40 10^−7 cm/sec,Degree of hypoglycemia (GK/Jcl rats; [3]): 30%; Degree of hypoglycemia (GK/Jcl rats; [4]): 37%
Cc1cc2cccc([C@@H]3C4=C(CNC4=O)N[C@@H]4CCCC[C@H]4N3C(=O)CO)c2[nH]1 [Example 11],0.73 µg/mL,,,,
COCC(=O)N1[C@@H]2CCCC[C@H]2NC2=C(C(=O)NC2)[C@H]1c1cccc2cc(C)[nH]c12 [Example 12],0.63 µg/mL,,,20 10^−7 cm/sec,Degree of hypoglycemia (GK/Jcl rats; [4]): 34%
O=C1NCC2=C1[C@@H](c1cccc3c1OCC3)N(C(=O)CO)[C@@H]1CCCC[C@H]1N2 [Example 13],0.90 µg/mL,,,,
O=C1NCC2=C1[C@@H](c1cccc3ccnn13)N(C(=O)CO)[C@@H]1CCCC[C@H]1N2 [Example 14],1.3 µg/mL,,,,Degree of hypoglycemia (GK/Jcl rats; [4]): 36%
O=C1NCC2=C1[C@@H](c1cccc3cccnc13)N(C(=O)CO)[C@@H]1CCCC[C@H]1N2 [Example 16],1.36 µg/mL,12%,36%,,Permeation coefficient (MDCK cells [2]): 9 10^−7 cm/sec
O=C1NCC2=C1[C@@H](c1cccc3cccnc13)N(C(=O)C(F)F)[C@@H]1CCCC[C@H]1N2 [Example 17],0.59 µg/mL,,,,Degree of hypoglycemia (GK/Jcl rats; [4]): 35%; Permeation coefficient (MDCK cells [2]): 10 10^−7 cm/sec
CSc1ccsc1[C@@H]1C2=C(CNC2=O)N[C@@H]2CCCC[C@H]2N1C(=O)CO [Example 18],3.1 µg/mL,21%,41%,,
C=Cc1ccccc1[C@@H]1C2=C(CNC2=O)N[C@@H]2CCCC[C@H]2N1C(=O)CO [Example 19],0.45 µg/mL,31%,36%,10 10^−7 cm/sec,
insulin,,,,,sugar transport enhancement action compared to non-insulin added control group (rat adipocytes; insulin 100 nM): 3-9 times
